Assay results as given in patent US11459315B2, “Modulators of methyl modifying enzymes, compositions and uses thereof” (Constellation Pharmaceuticals, Inc., priority 2017, dated 2022).
Like-named read-outs stand apart in the source and are kept apart here.

Experiments:
[1] = test system: H3K27me3 mark in HeLa cells (EZH2); experiment: H3K27me3 Alpha Hela Assay (AlphaLISA); assay type: cell-based; details: HeLa cell assay, Table 3 classes, read-out: EC50 Cellular Activity
Summary of the method: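 HeLa cells (1,000/well) treated with ten 3-fold compound doses for 72 h at 37 °C; lysates extracted and H3K27me3 detected by AlphaLISA with anti-K27me3 acceptor beads, biotinylated anti-H3 (3 nM) and streptavidin donor beads. EC50 from DMSO-normalized dose-response curves; duplicate plate assessed viability.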

PRC2 containing wt EZH2 = PRC2 containing wt EZH2 (Homo sapiens (Human), UniProt Q15910); experiment: EZH2 residence time assay (100-fold dilution of pre-formed enzyme-inhibitor complex); assay type: biochemical
Chain of PRC2 containing wt EZH2 (Q15910 whole entry): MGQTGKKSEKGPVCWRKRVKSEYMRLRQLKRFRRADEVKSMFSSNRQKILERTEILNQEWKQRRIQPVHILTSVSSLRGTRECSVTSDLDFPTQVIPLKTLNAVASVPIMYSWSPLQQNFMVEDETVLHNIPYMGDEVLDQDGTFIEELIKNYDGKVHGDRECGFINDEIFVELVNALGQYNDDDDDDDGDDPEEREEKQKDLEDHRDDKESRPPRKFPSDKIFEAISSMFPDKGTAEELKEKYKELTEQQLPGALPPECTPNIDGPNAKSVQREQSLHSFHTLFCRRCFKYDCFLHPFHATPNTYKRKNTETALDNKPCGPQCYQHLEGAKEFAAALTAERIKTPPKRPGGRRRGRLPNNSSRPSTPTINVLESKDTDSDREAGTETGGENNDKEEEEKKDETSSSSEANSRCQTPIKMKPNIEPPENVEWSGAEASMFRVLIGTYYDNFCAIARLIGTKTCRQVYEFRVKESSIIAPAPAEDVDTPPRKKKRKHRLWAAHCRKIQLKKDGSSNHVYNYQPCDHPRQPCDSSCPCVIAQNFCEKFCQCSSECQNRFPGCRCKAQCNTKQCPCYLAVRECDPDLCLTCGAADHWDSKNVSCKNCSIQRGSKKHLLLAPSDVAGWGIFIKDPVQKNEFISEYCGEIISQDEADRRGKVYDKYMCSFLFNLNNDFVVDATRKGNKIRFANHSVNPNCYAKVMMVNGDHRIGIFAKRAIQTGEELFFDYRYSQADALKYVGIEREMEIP
Chain of PRC2 containing wt EZH2 (O75530 whole entry partner): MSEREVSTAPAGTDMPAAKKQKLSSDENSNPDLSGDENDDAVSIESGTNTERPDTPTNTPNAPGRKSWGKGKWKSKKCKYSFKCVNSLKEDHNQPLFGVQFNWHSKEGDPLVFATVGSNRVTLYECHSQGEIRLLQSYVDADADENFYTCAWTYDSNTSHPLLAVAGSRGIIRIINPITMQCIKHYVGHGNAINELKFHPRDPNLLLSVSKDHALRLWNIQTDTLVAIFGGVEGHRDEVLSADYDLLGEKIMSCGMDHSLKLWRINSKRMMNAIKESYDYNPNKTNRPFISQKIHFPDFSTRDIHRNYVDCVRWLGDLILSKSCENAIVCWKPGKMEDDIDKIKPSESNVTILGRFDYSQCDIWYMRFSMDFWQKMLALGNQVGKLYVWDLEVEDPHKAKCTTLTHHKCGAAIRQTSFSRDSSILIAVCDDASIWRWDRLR
Chain of PRC2 containing wt EZH2 (Q15022 whole entry partner): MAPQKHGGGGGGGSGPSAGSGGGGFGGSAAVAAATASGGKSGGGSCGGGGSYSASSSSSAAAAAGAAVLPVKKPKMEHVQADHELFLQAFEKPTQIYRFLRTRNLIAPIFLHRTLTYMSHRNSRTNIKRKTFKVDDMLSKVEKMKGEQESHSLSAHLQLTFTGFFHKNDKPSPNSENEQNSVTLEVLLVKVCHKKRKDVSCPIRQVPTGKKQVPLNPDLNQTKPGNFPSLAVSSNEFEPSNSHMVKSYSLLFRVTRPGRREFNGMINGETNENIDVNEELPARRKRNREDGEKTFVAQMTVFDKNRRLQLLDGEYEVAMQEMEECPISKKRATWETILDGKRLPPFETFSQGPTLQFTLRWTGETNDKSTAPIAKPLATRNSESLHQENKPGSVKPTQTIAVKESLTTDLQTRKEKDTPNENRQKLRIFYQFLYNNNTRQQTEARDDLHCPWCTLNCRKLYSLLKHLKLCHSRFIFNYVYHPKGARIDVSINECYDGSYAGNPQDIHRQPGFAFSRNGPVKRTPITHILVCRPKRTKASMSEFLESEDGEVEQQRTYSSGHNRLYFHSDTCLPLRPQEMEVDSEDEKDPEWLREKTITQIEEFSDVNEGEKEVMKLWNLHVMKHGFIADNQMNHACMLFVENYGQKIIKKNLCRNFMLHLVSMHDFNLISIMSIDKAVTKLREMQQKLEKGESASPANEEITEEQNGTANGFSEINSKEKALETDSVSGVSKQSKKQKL
Chain of PRC2 containing wt EZH2 (Q09028 whole entry partner): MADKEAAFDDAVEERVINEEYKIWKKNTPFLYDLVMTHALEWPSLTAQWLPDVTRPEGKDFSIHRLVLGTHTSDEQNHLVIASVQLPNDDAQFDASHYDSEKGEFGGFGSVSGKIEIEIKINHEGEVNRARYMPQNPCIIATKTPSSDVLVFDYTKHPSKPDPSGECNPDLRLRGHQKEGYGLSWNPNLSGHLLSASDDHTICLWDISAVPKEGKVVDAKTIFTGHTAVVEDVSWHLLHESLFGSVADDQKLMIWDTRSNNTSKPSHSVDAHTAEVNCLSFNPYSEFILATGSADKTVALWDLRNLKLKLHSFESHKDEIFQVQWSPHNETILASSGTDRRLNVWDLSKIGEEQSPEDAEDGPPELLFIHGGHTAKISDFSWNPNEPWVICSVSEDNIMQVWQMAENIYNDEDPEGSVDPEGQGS
Chain of PRC2 containing wt EZH2 (Q6ZN18 whole entry partner): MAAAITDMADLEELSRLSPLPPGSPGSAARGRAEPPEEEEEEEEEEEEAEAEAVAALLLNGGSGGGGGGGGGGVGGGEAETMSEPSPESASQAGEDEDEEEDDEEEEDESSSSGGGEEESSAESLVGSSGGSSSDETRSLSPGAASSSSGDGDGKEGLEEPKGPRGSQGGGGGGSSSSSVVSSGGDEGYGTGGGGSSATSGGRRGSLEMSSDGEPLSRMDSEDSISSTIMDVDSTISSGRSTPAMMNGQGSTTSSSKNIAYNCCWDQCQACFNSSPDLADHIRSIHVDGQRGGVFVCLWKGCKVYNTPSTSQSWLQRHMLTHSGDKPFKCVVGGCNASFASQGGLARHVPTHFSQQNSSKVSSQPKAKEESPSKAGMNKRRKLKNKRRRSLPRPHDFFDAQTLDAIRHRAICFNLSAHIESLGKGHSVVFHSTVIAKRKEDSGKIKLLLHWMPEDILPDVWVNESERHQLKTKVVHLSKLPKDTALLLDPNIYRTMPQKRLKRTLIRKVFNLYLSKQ
Protocol: EZH2 residence time assay: Compound residence times were assessed by monitoring the recovery of enzyme activity following a 100-fold dilution of pre-formed enzyme-inhibitor complex (dilution reaction), and comparing it to the activity of an undiluted control with the same final concentrations of all reagents (control reaction). Enzyme activity was measured by incorporation of ^3H-SAM into a biotinylated H3 peptide. […] For the control reaction, 0.202 nM PRC2 was pre-incubated with 1 μM activating peptide, 1.01 μM SAM, 1.01 μM ^3H-SAM, and compound at 6.06 times its Ki for 2 h in 138.6 μL of buffer, then the reaction was initiated by the addition of 1.4 μL 500 μM substrate peptide in water. Reactions were quenched at various time points spanning up to 10 hours, by transferring 8 μL aliquots from the reaction vessel to a plate containing 8 μL per well of STOP solution (50 mM Tris pH 8.5, 200 mM EDTA, 2 mM SAH). After the last time point, 12 μL of the quenched solutions were transferred to a streptavidin coated FlashPlate (PerkinElmer) containing 40 μL per well of STOP solution, incubated 1-8 h, washed, and read in a TopCount plate reader (PerkinElmer). A custom script was used to fit control reaction progress data to a straight line and dilution reaction progress data:
Where y is the product formed, t is the reaction time, vi is the initial velocity, vs is the steady state velocity, and kobs is the rate constant for the transition from the initial velocity phase of the curve to the steady state velocity phase of the curve. In fitting the dilution reaction progress data, vs was constrained to the slope of the line fitted to the control reaction progress data. The fitted value of kobs was then transformed into residence time:
Where τ is residence time, Ki is the inhibition constant, [EI] is the calculated equilibrium concentration of enzyme-inhibitor complex, [E] is the calculated equilibrium concentration of free enzyme, and [I] is the calculated equilibrium concentration of free inhibitor.

Row | SMILES | EC50 ([1]; Homo sapiens, HeLa) [nM] | residence time (PRC2 containing wt EZH2) | EC50 [1] [nM] | residence time (PRC2 containing wt EZH2; read-out: Residence Time) [min]
1 | CSc1cc(C)[nH]c(=O)c1CNC(=O)c1c(C)n([C@H](C)C2CCC(NC3(C(F)(F)F)COC3)CC2)c2ccccc12 (stereo partly shown) | < 5 | 300 to 2100 min |  | 
2 | Cc1cc(Cl)c(CNC(=O)c2c(C)n([C@H](C)C3OCC(NC4(C)COC4)CO3)c3ccccc23)c(=O)[nH]1 (single isomer, unassigned) [drawing 225] |  | D (a t value of less or equal than 0.5 hours) | > 125 | 
3 | Cc1cc(Cl)c(CNC(=O)c2c(C)n([C@H](C)C3CCC(NC4(C)COC4)CC3)c3ccccc23)c(=O)[nH]1 (single isomer, unassigned) [drawing 201] |  | D (a t value of less or equal than 0.5 hours) | 25 to 125 | 
4 | COC1CN(C2CCC([C@@H](C)n3c(C)c(C(=O)NCc4c(C)cc(C)[nH]c4=O)c4ccccc43)CC2)C1 (single isomer, unassigned) | 5 to 25 | 30 to 300 min |  | 
5 | COC1CN(C2CCC([C@@H](C)n3c(C)c(C(=O)NCc4c(SC5CC5)cc(C)[nH]c4=O)c4ccccc43)CC2)C1 (stereo partly shown) [drawing 264] | 5 to 25 | 300 to 2100 min |  | 
6 | CSc1cc(C)[nH]c(=O)c1CNC(=O)c1c(C)n([C@H](C)C2CCC(O)CC2)c2ccccc12 (single isomer, unassigned) [drawing 251] |  | A (value of greater than 35 hours) | < 5 | 
7 | Cc1cc(C)c(CNC(=O)c2c(C)n([C@H](C)C34CC(NC5COC5)(C3)C4)c3ccccc23)c(=O)[nH]1 | 25 to 125 |  |  | < 30
8 | Cc1cc(C)c(CNC(=O)c2c(C)n([C@H](C)C3CCC(NC4COC4)CC3)c3ccccc23)c(=O)[nH]1 (single isomer, unassigned) [drawing 209] |  |  | > 125 | < 30
9 | CSc1cc(C)[nH]c(=O)c1CNC(=O)c1c(C)n([C@H](C)C2CCC(NC3(C)COC3)CC2)c2ccccc12 (single isomer, unassigned) [drawing 205] | < 5 | A (value of greater than 35 hours) |  | 
10 | COC1CN(C2CCC([C@@H](C)n3c(C)c(C(=O)NCc4c(Cl)cc(C)[nH]c4=O)c4ccccc43)CC2)C1 (single isomer, unassigned) | 5 to 25 | 30 to 300 min |  | 
11 | CSc1cc(C)[nH]c(=O)c1CNC(=O)c1c(C)n([C@H](C)C2CCC(NC3COC3)CC2)c2ccccc12 (single isomer, unassigned) [drawing 214] |  | C (a t value of greater than 0.5 hours but less or equal than 5 hours) | 25 to 125 | 
12 | CSc1cc(C)[nH]c(=O)c1CNC(=O)c1c(C)n([C@H](C)C2CCN(CC(C)(C)O)CC2)c2ccccc12 [drawing 240] | 25 to 125 | 300 to 2100 min |  | 
13 | Cc1cc(SC(F)F)c(CNC(=O)c2c(C)n([C@H](C)C3CCN(CC(F)(F)F)CC3)c3ccccc23)c(=O)[nH]1 [drawing 266] | 25 to 125 | < 30 min |  | 
14 | Cc1cc(Cl)c(CNC(=O)c2c(C)n([C@H](C)C3CCC(NC4COC4)CC3)c3ccccc23)c(=O)[nH]1 (single isomer, unassigned) [drawing 212] |  | C (a t value of greater than 0.5 hours but less or equal than 5 hours) | 25 to 125 | 
15 | COc1cc(C)[nH]c(=O)c1CNC(=O)c1c(C)n([C@H](C)C2CCC(N3CC(OC)C3)CC2)c2ccccc12 (single isomer, unassigned) [drawing 217] | > 125 | < 30 min |  | 
16 | Cc1cc(C)c(CNC(=O)c2c(C)n([C@H](C)C3CCN(CC(C)(C)O)CC3)c3ccccc23)c(=O)[nH]1 | > 125 | < 30 min |  | 
17 | CSc1cc(C)[nH]c(=O)c1CNC(=O)c1c(C)n([C@H](C)C2CCC(N3CC(OC(F)F)C3)CC2)c2ccccc12 (single isomer, unassigned) [drawing 252] | < 5 | > 2100 min |  | 
18 | CSc1cc(C)[nH]c(=O)c1CNC(=O)c1c(C)n([C@H](C)C2CCC(N3CC(F)C3)CC2)c2ccccc12 (single isomer, unassigned) [drawing 254] | < 5 | A (value of greater than 35 hours) |  | 
19 | COc1cc(C)[nH]c(=O)c1CNC(=O)c1c(C)n([C@H](C)C2CCC(NC3COC3)CC2)c2ccccc12 (single isomer, unassigned) [drawing 208] |  | C (a t value of greater than 0.5 hours but less or equal than 5 hours) | 25 to 125 | 

Row | SMILES | EC50 ([1]; Homo sapiens, HeLa) [nM] | residence time (PRC2 containing wt EZH2) | EC50 [1] [nM] | residence time (PRC2 containing wt EZH2; read-out: Residence Time) [min]
20 | Cc1cc(Cl)c(CNC(=O)c2c(C)n([C@H](C)C3OCC(N(C)C)CO3)c3ccccc23)c(=O)[nH]1 (single isomer, unassigned) [drawing 230] |  | D (a t value of less or equal than 0.5 hours) | 25 to 125 | 
21 | COC1CN(C2CCC([C@@H](C)n3c(C)c(C(=O)NCc4c(SC)cc(C)[nH]c4=O)c4cccnc43)CC2)C1 (single isomer, unassigned) [drawing 259] |  | 300 to 2100 min | 5 to 25 | 
22 | CSc1cc(C)[nH]c(=O)c1CNC(=O)c1c(C)n([C@H](C)C23CC(NC4COC4)(C2)C3)c2ccccc12 [drawing 234] | < 5 | 300 to 2100 min |  | 
23 | CSc1cc(C)[nH]c(=O)c1CNC(=O)c1c(C)n([C@H](C)C2CCC(N3CC(OC4CC4)C3)CC2)c2ncccc12 (stereo partly shown) | < 5 |  |  | 300 to 2100
24 | CSc1cc(C)[nH]c(=O)c1CNC(=O)c1c(C)n([C@H](C)C2CCC(NC3COC3)CC2)c2ccccc12 (single isomer, unassigned) [drawing 213] |  | A (value of greater than 35 hours) | < 5 | 
25 | Cc1cc(SC2CCC2)c(CNC(=O)c2c(C)n([C@H](C)C3CCN(CC(F)(F)F)CC3)c3ccccc23)c(=O)[nH]1 [drawing 267] | 25 to 125 | 30 to 300 min |  | 
26 | COc1cc(C)[nH]c(=O)c1CNC(=O)c1c(C)n([C@H](C)C2CCC(N3CC(OC)C3)CC2)c2ccccc12 (single isomer, unassigned) [drawing 218] |  | C (a t value of greater than 0.5 hours but less or equal than 5 hours) | > 125 | 
27 | CSc1cc(C)[nH]c(=O)c1CNC(=O)c1c(C)n([C@H](C)C2OCC(NC(C)(C)C)CO2)c2ccccc12 (single isomer, unassigned) [drawing 223] |  | D (a t value of less or equal than 0.5 hours) | 25 to 125 | 
28 | COC1CN(C2CCC([C@@H](C)n3c(C)c(C(=O)NCc4c(SC)cc(C)[nH]c4=O)c4ccccc43)CC2)C1 (single isomer, unassigned) [drawing 220] |  | C (a t value of greater than 0.5 hours but less or equal than 5 hours) | 5 to 25 | 
29 | COc1cc(C)[nH]c(=O)c1CNC(=O)c1c(C)n([C@H](C)C2CCN(CC(C)(C)O)CC2)c2ccccc12 | > 125 | < 30 min |  | 
30 | CSc1cc(C)[nH]c(=O)c1CNC(=O)c1c(C)n([C@H](C)C2OCC(N(C)C)CO2)c2ccccc12 (single isomer, unassigned) [drawing 232] |  | B (a t value of greater than 5 hours but less or equal than 35 hours) | < 5 | 
31 | Cc1cc(C)c(CNC(=O)c2c(C)n([C@H](C)C3CCC(NC4(C)COC4)CC3)c3ccccc23)c(=O)[nH]1 (single isomer, unassigned) [drawing 204] |  | B (a t value of greater than 5 hours but less or equal than 35 hours) | < 5 | 
32 | CSc1cc(C)[nH]c(=O)c1CNC(=O)c1c(C)n([C@H](C)C23CC(N(C)CC(F)(F)F)(C2)C3)c2ccccc12 [drawing 237] | 5 to 25 | 300 to 2100 min |  | 
33 | CCOC1CN(C2CCC([C@@H](C)n3c(C)c(C(=O)NCc4c(SC)cc(C)[nH]c4=O)c4cccnc43)CC2)C1 (single isomer, unassigned) [drawing 261] |  |  | < 5 | 300 to 2100
34 | COC1CN(C2CCC([C@@H](C)n3c(C)c(C(=O)NCc4c(SC)cc(C)[nH]c4=O)c4ccccc43)CC2)C1 (single isomer, unassigned) [drawing 219] | < 5 | A (value of greater than 35 hours) |  | 
35 | CCSc1cc(C)[nH]c(=O)c1CNC(=O)c1c(C)n([C@H](C)C2CCN(CC(F)(F)F)CC2)c2ccccc12 [drawing 265] | 25 to 125 | < 30 min |  | 
36 | CSc1cc(C)[nH]c(=O)c1CNC(=O)c1c(C)n([C@H](C)C2CCN(CC(F)(F)F)CC2)c2ccccc12 [drawing 243] | < 5 | 300 to 2100 min |  | 
37 | COC1CCC([C@@H](C)n2c(C)c(C(=O)NCc3c(SC)cc(C)[nH]c3=O)c3ccccc32)CC1 (single isomer, unassigned) [drawing 248] |  | > 2100 min | < 5 | 
38 | COc1cc(C)[nH]c(=O)c1CNC(=O)c1c(C)n([C@H](C)C2CCN(CC(F)(F)F)CC2)c2ccccc12 | 5 to 25 |  |  | 30 to 300
